From US4015017A, “Certain biphenyl derivatives used to treat disorders caused by increased capillary permeability” (Laboratoires Pharmascience, priority 1974, dated 1977)
Where two headings read alike, the source gives them in different places.

How the values were obtained:
[1] = system: mice; test: Anti-inflammation effect on vessels using croton oil on mice (technique of Bounameaux and Lecomto); format: in vivo
Text: Some of the compounds of the formula I have other interesting properties. Thus the anti-inflammation effect on vessels evaluated according to the technique of Y. Bounameaux and J. Lecomto, 1955, C.R. Soc.

[2] = biological target: T1, catechol-O-methyltransferase (Rattus norvegicus, UniProt P22734); test: Protection of the catecholamines: incubation of catechol-O-methyltransferase with adrenalin and orthodiphenol (method of Axelrod); format: biochemical; settings: stoichiometric amounts of adrenalin and orthodiphenol, after 30 minutes
T1 sequence (P22734 1-221 isoform P22734-2): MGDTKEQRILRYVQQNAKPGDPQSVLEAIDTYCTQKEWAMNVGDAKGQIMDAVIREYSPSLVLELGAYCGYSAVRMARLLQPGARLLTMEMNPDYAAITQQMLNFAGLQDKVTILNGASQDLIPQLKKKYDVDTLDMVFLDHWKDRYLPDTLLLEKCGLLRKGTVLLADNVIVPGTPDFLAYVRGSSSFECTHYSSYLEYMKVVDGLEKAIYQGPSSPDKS
Text: Whether administered orally or parenterally they undergo in the organism a monomethylation on one of the two hydroxyl groups, as do all orthodiphenols, (J. Axelrod and M. J. Laroche, 1959, Science, 130, p 800). This monomethylation is due to the action of the catechol-O-methyltransferases (C.O.M.T.), S-adenosyl-L-methionine providing the methyl radicals (J. Axelrod and R. Tomchick, 1958, J. Biol. Chem. 233 p.702). This methylation occurs in the physiological catecholamines, for example, adrenalin, as well as in the synthetic orthodiphenols.
As methylation is a first stage in the destructive pathway, this competition serves to protect the natural catecholamines from early destruction, (J. M. Gazave, P. Canu, M. Baques, and F. Martin, 1971, Biochem and Experim. Biol., X p.89).
Using the techniques of Axelrod et al (op.cit.) it is possible to quantify this effect for various compounds, as the intensity of the effect varies, being dependent on the chemical composition and physical properties, especially the solubility of the compound.
By incubating a catechol-O-methyltransferase with stoichiometric amounts of adrenalin and an orthodiphenol according to the method of Axelrod, determining the quantity of adrenalin protected ie. non-methylated after 30 minutes the extent of the protection given by the product studied can be evaluated.

[3] = system: guinea pig; test: Capillary resistance on the guinea pig (technique of Parrot and Canu); format: in vivo
Text: Experiments on capillary resistance on the guinea pig using the technique of J-L. Parrot and P. Canu, 1964, Arch. […] (By comparison trioxyethylrutine gives an increase of 13%).

[4] = system: rats; test: Research into the methemoglobinising properties (spectrophotometric technique of Evelyn and Malby); format: in vivo; settings: rats treated for 75 days at 0.20 g per kg body weight per day
Text: Certain phenols, in particular pyrocatechol (1,2-dihydroxybenzene) and pyrogallol (1,2,3-trihydroxybenzene), when administered either orally or parenterally to an organism bring about a transformation of the oxyhaemoglobin of the blood to methemoglobin. In oxyhaemoglobin, the iron is in the ferrous state (Fe^+^+) and can transport oxygen; whereas in methemoglobin, the iron is in the ferric state (Fe ^+^+^+) and is unsuitable for transporting oxygen.
It therefore appeared necessary to try to discover if the polyhydroxy compounds used in the preparations of the present invention, in particular 2,3,3',4,4',5'-hexahydroxy benzophenone, would also act as methemoglobinising agents.
This study was carried out using pyrogallol as the comparative substance and the spectrophotometric technique of Evelyn and Malby, (in R. Lecoq, 1972, Analyses Medicales, 2, p.1699): […]

[5] = in vivo; settings: rat, acute toxicity, oral administration, rats, read-out: DL 50 A.O
[6] = in vivo; settings: rat, ip, acute toxicity, intraperitoneal administration, rats, read-out: DL50 A. IP

Structure (SMILES) | protection of adrenalin (non-methylated) [2] | increase in the capillary resistance [3] | also measured
O=C(c1cc(O)c(O)c(O)c1)c1ccc(O)c(O)c1O [2,3,3',4,4',5'-Hexahydroxybenzophenone, 2,3,3',4,4',5'-hexahydroxybenzophenone] | 100% | 82% | methemoglobin in the blood [4]: no methemoglobin could be detected; LD50 [5]: 1420 mg/kg; LD50 [6]: 355 mg/kg
O=C(c1ccc(O)c(O)c1)c1ccc(O)c(O)c1O [2,3,3',4,4'-pentahydroxybenzophenone] | 100% |  | 
O=C(c1ccc(O)c(O)c1)c1cc(O)c(O)c(O)c1 [3,3',4,4' ,5'-pentahydroxybenzophenone, 3,3',4,4',5'-pentahydroxybenzophenone] | 100% |  | anti-inflammation effect on vessels [1]: anti-inflammatory properties
O=C(C(=O)c1ccc(O)c(O)c1)c1ccc(O)c(O)c1 [3,3',4,4'-tetrahydroxybenzile, 3,3',4,4'-tetrahydroxybenzil] | 100% |  | 
O=C(c1ccc(O)c(O)c1)c1ccc(O)c(O)c1 [3,3',4,4'-tetrahydroxybenzophenone] | 100% |  | 
C[C@@H]1O[C@@H](OC[C@H]2O[C@@H](Oc3c(-c4ccc(OCCO)c(OCCO)c4)oc4cc(OCCO)cc(O)c4c3=O)[C@H](O)[C@@H](O)[C@@H]2O)[C@H](O)[C@H](O)[C@H]1O [trioxyethylrutine, reference compound] |  | 13% | 
O=C(Cc1ccc(O)c(O)c1)c1ccc(O)c(O)c1O [β-(3,4-dihydroxyphenyl)-2,3,4-trihydroxyacetophenone] |  | 34% | LD50 [5]: 2000 mg/kg; LD50 [6]: 730 mg/kg

More lines, main results first:

protection of adrenalin (non-methylated) [2] | Structure (SMILES) | increase in the capillary resistance [3] | also measured
≥ 90% | O=C(c1ccc(O)c(O)c1)c1cccc(O)c1O [2,3,3',4'-Tetrahydroxybenzophenone, 2,3,3',4'-tetrahydroxybenzophenone] | 56% | anti-inflammation effect on vessels [1]: anti-inflammatory properties
≥ 90% | Oc1ccc(Cc2ccc(O)c(O)c2)cc1O [di-(3,4-dihydroxyphenyl) methane, di-(3,4-dihydroxyphenyl)-methane] |  | 
≥ 90% | O=C(Cc1ccc(O)c(O)c1)c1ccc(O)c(O)c1 [β-(3,4-dihydroxyphenyl)-3,4-dihydroxyacetophenone] |  | 
